Values of other authors, collected in patent publication US20220142214A1, “SYNERGISTIC COMPOSITION OF FOOD-BASED AND ORGANIC NUTRIENTS AND METHODS FOR USE AND MANUFACTURE” (priority 2020, published 2022).
Like-named read-outs stand apart in the source and are kept apart here.

What was measured:
[1] = test system: B16-BL6 cells; conditions: for tumor growth: intraperitoneal administration at time of i.m. injection of B16-BL6 cells
[2] = test system: B16-BL6 cells; conditions: dose-dependent
[3] = intraperitoneal administration, syngeneic mice

For `O=C(O[C@@H]1Cc2c(O)cc(O)cc2O[C@@H]1c1cc(O)c(O)c(O)c1)c1cc(O)c(O)c(O)c1` [EGCG, Epigallocathechin-3-gallate], the tumor growth [1] is given as “significant, dose-dependent delay of tumor growth” and the toxicity [1, 3] is given as “without toxicity”.
In the case of `O=c1cc(-c2ccc(O)cc2)oc2cc(O)cc(O)c12` [apigenin], the tumor growth [1] is listed as “significant, dose-dependent delay of tumor growth”, the toxicity [1, 3] is listed as “without toxicity” and the “number of B16-BL6 colonies in the lungs” value [2] is listed as “significantly decreased”.
For `O=c1c(O)c(-c2ccc(O)c(O)c2)oc2cc(O)cc(O)c12` [quercetin], the tumor growth [1] is given as “significant, dose-dependent delay of tumor growth”, the toxicity ([1]; mouse, in vivo, ip) is given as “without toxicity” and the “number of B16-BL6 colonies in the lungs” value [2] is given as “significantly decreased”.
In the case of `Oc1ccc(C=Cc2cc(O)cc(O)c2)cc1` [resveratrol], the tumor growth [1] is listed as “significant, dose-dependent delay of tumor growth” and the toxicity ([1]; mouse, in vivo, ip) is listed as “without toxicity”.
For `CC/C(=C(\c1ccccc1)c1ccc(OCCN(C)C)cc1)c1ccccc1` [tamoxifen], the tumor growth [1] is listed as “significant, dose-dependent delay of tumor growth”, the toxicity ([1]; mouse, in vivo, ip) is listed as “without toxicity” and the “number of B16-BL6 colonies in the lungs” value [2] is listed as “significantly decreased”.
